Assay results from patent US6461997B1, “Triazole sulfones having herbicidal activity” (Monsanto Technology LLC, priority 1999, dated 2002).

Columns and labels:
[1] = tested on: ECHCG (barnyardgrass); assay: Pre-plant incorporated (PPI) herbicidal activity, warm season; format: in vivo, Echinochloa crus-galli; details: for inhibition at 10 g/ha / inhibition at 30 g/ha / inhibition at 100 g/ha / inhibition at 300 g/ha / inhibition at 900 g/ha: Echinochloa crus-galli, read-out: Percent inhibition ECHCG; for inhibition at 10 g/ha / inhibition at 30 g/ha / inhibition at 100 g/ha / inhibition at 300 g/ha / inhibition at 900 g/ha / Percent inhibition ECHCG: PPI application; for PPI activity GR80, ECHCG: pre-plant incorporated, lowest tested rate with 80% or greater inhibition, about 14 days
Procedure: (§1) In another set of tests, the pre-plant incorporated (PPI) activity of compounds of this invention was evaluated on the same species as for the pre-emergence tests described above. In the PPI tests the following procedure, designed to simulate PPI application, was used.
(§2) A pre-prepared topsoil mixture (described above) was placed in a pot and compacted to a depth of 1.0 to 1.25 cm from the top of the pot. Seeds of each of several monocotyledonous and dicotyledonous annual plant species were placed on top of the soil. A sufficient quantity of soil to cover the seeds and level fill the pot was weighed into an open container. A known amount of the test compound was dissolved or suspended in an organic solvent and applied by spraying to this cover soil. The cover soil was thoroughly mixed to distribute the test compound throughout the cover soil, and was then applied as a cover layer over the seeds. Untreated soil was used as a cover layer for control pots. After treatment the plants were placed in a greenhouse where they received 0.64 cm of overhead irrigation. All subsequent watering consisted of a light overhead mist and/or subirrigation as needed for germination and growth. Tables 9 and 10 below relate to warm season plant species which were placed after pre-emergence treatment in a greenhouse with a 30/21° C. day/night temperature regime. Tables 11 and 12 below relates to cool season plant species placed after pre-emergence treatment in a greenhouse or growth chamber with an 18/13° C. day/night temperature regime. Only the compounds of Examples 1, 6, 8, 11, 13 and 15-20 were included in PPI tests.
(§3) Approximately 14 days after planting and treating, the plants were observed and herbicidal efficacy recorded as percent inhibition by comparison with untreated plants.

[2] = tested on: AGRRE (quackgrass (seedling)); assay: Post-emergence herbicidal activity, cool season; format: in vivo, Elymus repens; details: abraded plants sprayed at 300, 100, 30 and 10 g/ha; about 14 days after treatment
Outline: (§4)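 Read-out was GR80, derived from percent growth inhibition relative to abraded, unsprayed control plants, observed roughly 14 days after spraying. Compounds in 50:50 acetone/water were applied at 300, 100, 30 and 10 g/ha to seedlings 9 to 14 days old whose foliage had been sand-abraded to aid uptake.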

[3] = tested on: SORVU (shattercane); assay: Pre-emergence herbicidal activity, warm season; format: in vivo, Sorghum vulgare; details: for Pre-emergence activity (GR80) SORVU: GR80 = lowest tested rate (300, 100, 30, 10 g/ha) with 80% or greater inhibition, approx. 14 days after treating, 30/21° C.; for inhibition at 10 g/ha / inhibition at 30 g/ha / inhibition at 100 g/ha / inhibition at 300 g/ha / inhibition at 900 g/ha: Sorghum bicolor, pre-emergence application, read-out: Percent inhibition, weed SORVU
Outline: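 Activity is expressed as the rate giving 80% inhibition, with 300, 100, 30 and 10 g/ha typically tested. An asterisk marks activity short of 80% at the top rate. Warm-season grasses were held at 30/21 °C; cool-season blackgrass and wild buckwheat at 18/13 °C; scoring at about 14 days.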

[4] = tested on: SORHA (johnsongrass (seedling)); assay: Pre-plant incorporated (PPI) herbicidal activity, warm season; format: in vivo, Sorghum halepense; details: for inhibition at 10 g/ha / inhibition at 30 g/ha / inhibition at 100 g/ha / inhibition at 300 g/ha / inhibition at 900 g/ha: Sorghum halepense, read-out: Percent inhibition SORHA; for inhibition at 10 g/ha / inhibition at 30 g/ha / inhibition at 100 g/ha / inhibition at 300 g/ha / inhibition at 900 g/ha / Percent inhibition SORHA: PPI application; for PPI activity GR80, SORHA: pre-plant incorporated, lowest tested rate with 80% or greater inhibition, about 14 days
Procedure: as §1, §2, §3

[5] = tested on: DATST (jimsonweed); assay: as above; format: in vivo, Datura stramonium; details: for inhibition at 10 g/ha / inhibition at 30 g/ha / inhibition at 100 g/ha / inhibition at 300 g/ha / inhibition at 900 g/ha: Datura stramonium, read-out: Percent inhibition DATST; for inhibition at 10 g/ha / inhibition at 30 g/ha / inhibition at 100 g/ha / inhibition at 300 g/ha / inhibition at 900 g/ha / Percent inhibition DATST: PPI application; for PPI activity (GR80) DATST: pre-plant incorporated, GR80 = lowest tested rate with 80% or greater inhibition, approx. 14 days after treating, 30/21° C.
Procedure: as §1, §2, §3

[6] = tested on: ALOMY (blackgrass); assay: Post-emergence herbicidal activity, cool season; format: in vivo, Alopecurus myosuroides; details: abraded plants sprayed at 300, 100, 30 and 10 g/ha; about 14 days after treatment
Outline: as §4

[7] = tested on: VERPE (creeping speedwell); assay: Pre-emergence herbicidal activity, cool season; format: in vivo, Veronica persicaria; details: lowest tested rate with 80% or greater inhibition; rates 300, 100, 30, 10 g/ha; about 14 days
Outline: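 Seeds sown in sterilised fertilised topsoil received surface-applied compound in 50:50 acetone/water, typically at 300, 100, 30 and 10 g/ha, then greenhouse-grown at 30/21° C (warm-season species) or 18/13° C (cool-season species). Percent inhibition versus untreated plants was scored at about 14 days, giving GR80; an asterisk marks activity short of 80% at the top rate.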

[8] = tested on: POLCO (wild buckwheat); assay: Pre-plant incorporated (PPI) herbicidal activity, cool season; format: in vivo, Polygonum convolvulus; details: for inhibition at 30 g/ha / inhibition at 100 g/ha / inhibition at 300 g/ha / inhibition at 900 g/ha: Fallopia convolvulus, read-out: Percent inhibition POLCO; for inhibition at 30 g/ha / inhibition at 100 g/ha / inhibition at 300 g/ha / inhibition at 900 g/ha / Percent inhibition POLCO: weed, PPI application; for PPI activity GR80, POLCO: pre-plant incorporated, lowest tested rate with 80% or greater inhibition, about 14 days
Procedure: as §1, §2, §3

Compound	inhibition at 30 g/ha ([1]; 30 g/ha) [%]	inhibition at 100 g/ha ([1]; 100 g/ha) [%]	inhibition at 300 g/ha ([1]; 300 g/ha) [%]	inhibition at 900 g/ha ([1]; 900 g/ha) [%]	PPI activity GR80, ECHCG [1]	Post-emergence activity GR80, AGRRE [2]	Pre-emergence activity (GR80) SORVU [3]	inhibition at 30 g/ha ([4]; 30 g/ha) [%]	inhibition at 100 g/ha ([4]; 100 g/ha) [%]	inhibition at 300 g/ha ([4]; 300 g/ha) [%]	inhibition at 900 g/ha ([4]; 900 g/ha) [%]	PPI activity GR80, SORHA [4] [g/ha]	inhibition at 30 g/ha ([5]; 30 g/ha) [%]	inhibition at 100 g/ha ([5]; 100 g/ha) [%]	inhibition at 300 g/ha ([5]; 300 g/ha) [%]	inhibition at 900 g/ha ([5]; 900 g/ha) [%]	PPI activity (GR80) DATST [5] [g/ha]	Post-emergence activity GR80, ALOMY [6]	Pre-emergence activity GR80, VERPE [7] [g/ha]	PPI activity GR80, POLCO [8]	also measured
CCN(CC)C(=O)n1cnc(S(=O)(=O)C(F)(F)Br)n1 [Example 1, 3-(bromodifluoromethylsulfonyl)-1-(N,N-diethylcarbamoyl)-1,2,4-triazole]	20	99	100	100	30 g/ha	[empty]	* (activity observed, at least at highest rate, but <80% inhibition)	50	100	100	100	30	0	0	40	95	30	[empty]	100	* (activity observed, at least at highest rate, but <80% inhibition)	inhibition at 10 g/ha ([1]; 10 g/ha): 0%; inhibition at 10 g/ha [3]: 0%; inhibition at 30 g/ha [3]: 0%; inhibition at 100 g/ha [3]: 60%; inhibition at 300 g/ha [3]: 80%; inhibition at 900 g/ha [3]: 95%; inhibition at 10 g/ha ([4]; 10 g/ha): 70%; inhibition at 10 g/ha ([5]; 10 g/ha): 0%; inhibition at 30 g/ha ([8]; 30 g/ha): 30%; inhibition at 100 g/ha ([8]; 100 g/ha): 90%; inhibition at 300 g/ha ([8]; 300 g/ha): 100%; inhibition at 900 g/ha ([8]; 900 g/ha): 100%
CCSC(F)(F)S(=O)(=O)c1ncn(C(=O)N(CC)CC)n1 [Example 8, 1-(N,N-diethylcarbamoyl)-3-[difluoro(ethylthio)methylsulfonyl]-1,2,4-triazole]	90	100	100	100	30 g/ha	[empty]	100 g/ha	100	90	100	100	30	30	60	100	100	100	[empty]	30	300 g/ha	inhibition at 30 g/ha ([8]; 30 g/ha): 0%; inhibition at 100 g/ha ([8]; 100 g/ha): 0%; inhibition at 300 g/ha ([8]; 300 g/ha): 85%; inhibition at 900 g/ha ([8]; 900 g/ha): 100%
CCN(CC)C(=O)n1cnc(S(=O)(=O)C(F)(F)SC)n1 [Example 9]						[empty]	300 g/ha											[empty]	100		Percent inhibition ECHCG ([1]; 30 g/ha): 90%; Percent inhibition ECHCG ([1]; 100 g/ha): 100%; Percent inhibition ECHCG ([1]; 300 g/ha): 100%; Percent inhibition ECHCG ([1]; 900 g/ha): 100%; Percent inhibition SORHA ([4]; 30 g/ha): 100%; Percent inhibition SORHA ([4]; 100 g/ha): 100%; Percent inhibition SORHA ([4]; 300 g/ha): 100%; Percent inhibition SORHA ([4]; 900 g/ha): 100%; Percent inhibition DATST ([5]; 30 g/ha): 0%; Percent inhibition DATST ([5]; 100 g/ha): 0%; Percent inhibition DATST ([5]; 300 g/ha): 80%; Percent inhibition DATST ([5]; 900 g/ha): 100%; Percent inhibition POLCO ([8]; 30 g/ha): 0%; Percent inhibition POLCO ([8]; 100 g/ha): 0%; Percent inhibition POLCO ([8]; 300 g/ha): 95%; Percent inhibition POLCO ([8]; 900 g/ha): 100%
CCN(CC)C(=O)n1cnc(S(=O)(=O)C(F)(F)SCC(=O)OC)n1 [Example 11]					* (activity observed, at least at highest rate, but <80% inhibition)	[empty]	* (activity observed, at least at highest rate, but <80% inhibition)					300					100	[empty]	100	* (activity observed, at least at highest rate, but <80% inhibition)	Percent inhibition ECHCG ([1]; 10 g/ha): 0%; Percent inhibition ECHCG ([1]; 30 g/ha): 0%; Percent inhibition ECHCG ([1]; 100 g/ha): 40%; Percent inhibition ECHCG ([1]; 300 g/ha): 70%; Percent inhibition ECHCG ([1]; 900 g/ha): 99%; Percent inhibition SORHA ([4]; 10 g/ha): 0%; Percent inhibition SORHA ([4]; 30 g/ha): 0%; Percent inhibition SORHA ([4]; 100 g/ha): 30%; Percent inhibition SORHA ([4]; 300 g/ha): 80%; Percent inhibition SORHA ([4]; 900 g/ha): 100%; Percent inhibition DATST ([5]; 10 g/ha): 0%; Percent inhibition DATST ([5]; 30 g/ha): 0%; Percent inhibition DATST ([5]; 100 g/ha): 20%; Percent inhibition DATST ([5]; 300 g/ha): 20%; Percent inhibition DATST ([5]; 900 g/ha): 80%; Percent inhibition POLCO ([8]; 10 g/ha): 0%; Percent inhibition POLCO ([8]; 30 g/ha): 0%; Percent inhibition POLCO ([8]; 100 g/ha): 0%; Percent inhibition POLCO ([8]; 300 g/ha): 0%; Percent inhibition POLCO ([8]; 900 g/ha): 30%
CCN(CC)C(=O)n1cnc(S(=O)(=O)C(F)F)n1 [Example 15, 1-(N,N-diethylcarbamoyl)-3-(difluoromethylsulfonyl)-1,2,4-triazole]	50	90	100	90	100 g/ha	[empty]	* (activity observed, at least at highest rate, but <80% inhibition)	20	100	100	95	30	0	0	65	90	300	[empty]		300 g/ha	inhibition at 10 g/ha ([1]; 10 g/ha): 10%; inhibition at 10 g/ha [3]: 0%; inhibition at 30 g/ha [3]: 0%; inhibition at 100 g/ha [3]: 20%; inhibition at 300 g/ha [3]: 60%; inhibition at 900 g/ha [3]: 95%; inhibition at 10 g/ha ([4]; 10 g/ha): 40%; inhibition at 10 g/ha ([5]; 10 g/ha): 0%
